ChEMBL document CHEMBL4354864, “Bicyclic α-Iminophosphonates as High Affinity Imidazoline I2 Receptor Ligands for Alzheimer's Disease” (J Med Chem, 2020)

Experiments:
[1] = Displacement of [3H]2-BFI from I2IR in human brain frontal cortex incubated for 45 mins by liquid scintillation spectrometry; assay type: tissue-based
[2] = target: T1, Alpha-2A adrenergic receptor (Homo sapiens, UniProt P08913); assay: biochemical
T1 sequence (P08913 whole entry): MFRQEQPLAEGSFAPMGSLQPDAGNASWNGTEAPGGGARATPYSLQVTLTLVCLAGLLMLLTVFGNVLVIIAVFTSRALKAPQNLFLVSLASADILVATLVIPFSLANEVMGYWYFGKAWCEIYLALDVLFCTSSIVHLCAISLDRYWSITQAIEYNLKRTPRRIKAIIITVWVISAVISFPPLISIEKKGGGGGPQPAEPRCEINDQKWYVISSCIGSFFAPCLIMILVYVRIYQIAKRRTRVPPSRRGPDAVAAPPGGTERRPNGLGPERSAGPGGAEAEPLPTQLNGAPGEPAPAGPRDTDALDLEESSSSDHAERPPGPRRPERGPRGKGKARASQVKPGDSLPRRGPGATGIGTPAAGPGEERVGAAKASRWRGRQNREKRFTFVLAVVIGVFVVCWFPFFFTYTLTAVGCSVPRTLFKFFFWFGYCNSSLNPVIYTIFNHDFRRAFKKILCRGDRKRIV
Description: Displacement of [3H]RX821002 from alpha2-AR in human brain frontal cortex incubated for 30 mins by liquid scintillation spectrometry

Nischarin = Nischarin (Homo sapiens, UniProt Q9Y2I1); assay: Displacement of [3H]clonidine from I1IR in human brain frontal cortex in presence of adrenaline incubated for 45 mins by liquid scintillation spectrometry; assay type: tissue-based
Homo sapiens [3] = organism: Homo sapiens; assay: Selectivity index, […] for alpha2-AR human brain frontal cortex […] in human brain frontal cortex
Homo sapiens [4] = organism: Homo sapiens; assay: Selectivity ratio of Ki for alpha2-AR high binding site in human brain frontal cortex to Ki for I2IR high binding site in human brain frontal cortex
[5] = Displacement of [3H]2-BFI from I2IR in human brain frontal cortex assessed as binding affinity at low affinity site incubated for 45 mins by liquid scintillation spectrometry; assay type: tissue-based
[6] = Displacement of [3H]2-BFI from I2IR in human brain frontal cortex assessed as binding affinity at high affinity site incubated for 45 mins by liquid scintillation spectrometry; assay type: tissue-based
Homo sapiens [7] = organism: Homo sapiens; assay: Displacement of [3H]2-BFI from I2IR in human brain frontal cortex assessed as binding affinity at high affinity site incubated for 45 mins by liquid scintillation spectrometry relative to control; assay type: tissue-based; design: concentration or dose not given beside the values
Rattus norvegicus = organism: Rattus norvegicus; assay: Displacement of [3H]2-BFI from I2IR in Sprague-Dawley rat brain cortex assessed as binding affinity at high binding site incubated for 45 mins by liquid scintillation spectrometry relative to control
[8] = Displacement of [3H]2-BFI from I2IR in Sprague-Dawley rat brain cortex assessed as binding affinity at low binding site incubated for 45 mins by liquid scintillation spectrometry
[9] = Displacement of [3H]2-BFI from I2IR in Sprague-Dawley rat brain cortex assessed as binding affinity at high binding site incubated for 45 mins by liquid scintillation spectrometry
[10] = Displacement of [3H]2-BFI from I2IR in Wistar rat brain cortex incubated for 90 mins by radioligand binding assay
[11] = Displacement of [3H]2-BFI from I2IR in Swiss mouse brain cortex incubated for 45 mins by liquid scintillation spectrometry
[12] = Displacement of [3H]2-BFI from I2IR in Sprague-Dawley rat brain cortex incubated for 45 mins by liquid scintillation spectrometry

Chain of Nischarin (Q9Y2I1 whole entry): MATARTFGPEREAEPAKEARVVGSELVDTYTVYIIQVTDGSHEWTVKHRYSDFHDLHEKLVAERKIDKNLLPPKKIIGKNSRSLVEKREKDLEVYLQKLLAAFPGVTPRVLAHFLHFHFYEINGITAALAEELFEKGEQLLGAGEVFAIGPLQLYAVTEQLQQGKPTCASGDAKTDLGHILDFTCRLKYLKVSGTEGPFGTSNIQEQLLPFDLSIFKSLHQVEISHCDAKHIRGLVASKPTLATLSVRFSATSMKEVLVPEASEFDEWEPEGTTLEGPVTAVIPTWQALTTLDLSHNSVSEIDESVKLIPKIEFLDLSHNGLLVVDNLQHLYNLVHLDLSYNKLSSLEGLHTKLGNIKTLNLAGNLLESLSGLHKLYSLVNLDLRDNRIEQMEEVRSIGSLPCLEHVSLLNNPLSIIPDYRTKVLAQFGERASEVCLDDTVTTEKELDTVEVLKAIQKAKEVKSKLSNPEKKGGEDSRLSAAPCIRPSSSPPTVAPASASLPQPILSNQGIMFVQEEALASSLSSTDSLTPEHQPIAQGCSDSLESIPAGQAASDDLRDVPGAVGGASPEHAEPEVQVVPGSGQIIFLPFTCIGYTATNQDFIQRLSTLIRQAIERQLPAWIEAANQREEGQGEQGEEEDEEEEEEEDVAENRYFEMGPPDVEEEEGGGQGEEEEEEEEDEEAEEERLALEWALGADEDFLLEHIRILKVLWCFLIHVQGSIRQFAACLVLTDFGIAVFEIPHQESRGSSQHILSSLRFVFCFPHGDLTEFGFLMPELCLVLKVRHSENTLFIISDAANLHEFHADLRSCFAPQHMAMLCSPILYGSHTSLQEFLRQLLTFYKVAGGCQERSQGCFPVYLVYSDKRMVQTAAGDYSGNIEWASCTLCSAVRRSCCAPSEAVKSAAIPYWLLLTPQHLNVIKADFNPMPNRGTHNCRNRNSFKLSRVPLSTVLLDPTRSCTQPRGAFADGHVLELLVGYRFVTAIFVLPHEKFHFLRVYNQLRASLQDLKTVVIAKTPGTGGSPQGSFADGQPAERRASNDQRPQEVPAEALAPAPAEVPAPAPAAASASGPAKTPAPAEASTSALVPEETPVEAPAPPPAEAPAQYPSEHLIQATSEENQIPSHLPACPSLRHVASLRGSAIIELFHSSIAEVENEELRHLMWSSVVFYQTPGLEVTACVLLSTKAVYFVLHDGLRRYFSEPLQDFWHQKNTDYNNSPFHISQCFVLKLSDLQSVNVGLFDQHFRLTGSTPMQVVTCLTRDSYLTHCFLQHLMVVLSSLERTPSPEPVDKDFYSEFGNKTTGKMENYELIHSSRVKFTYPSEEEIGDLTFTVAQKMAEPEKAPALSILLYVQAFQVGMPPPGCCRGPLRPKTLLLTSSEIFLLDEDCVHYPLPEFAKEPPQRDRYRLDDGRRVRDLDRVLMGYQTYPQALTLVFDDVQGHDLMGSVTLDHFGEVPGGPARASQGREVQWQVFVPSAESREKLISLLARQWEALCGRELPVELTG

CCOP(=O)(OCC)C1(c2ccccc2)N=CC2C(=O)N(c3ccc(C)cc3)C(=O)C21 (racemic)
pKi [1]: 5.44

CCOP(=O)(OCC)C1(c2ccccc2)N=CC2C(=O)N(c3cccc4ccccc34)C(=O)C21 (racemic)
pKi [1]: 3.11
Ki [2]: > 1000 µM

CCOP(=O)(OCC)C1(Cc2ccccc2)N=CC2C(=O)N(c3ccccc3)C(=O)C21 (racemic)
pKi [1]: 6.59
IC50 (Nischarin): 7.59 µM
Ki [2]: 115 µM
Ratio pKi (Homo sapiens [3]): 447

CCOP(=O)(OCC)C1N=CC2C(=O)N(C)C(=O)C21 (racemic)
pKi [1]: 6.79
IC50 (Nischarin): 7.41 µM
Ki [2]: 0.00447 µM

CCOP(=O)(OCC)C1N=CC2C(=O)N(c3ccc(OC)cc3)C(=O)C21 (racemic)
pKi [1]: 5.11
IC50 (Nischarin): 0.00813 µM
Ki [2]: 5.37e-05 µM

CCOP(=O)(OCC)C1(c2ccccc2)N=CC2C(=O)N(c3ccc(C(F)(F)F)cc3)C(=O)C21 (racemic)
pKi [1]: < 3
Ki [2]: 18.6 µM

CCOP(=O)(OCC)C1(c2ccccc2)N=CC2C(=O)N(c3cc([N+](=O)[O-])ccc3C)C(=O)C21 (racemic)
pKi [1]: < 3

CCOP(=O)(OCC)C1(c2ccccc2)N=CC2C(=O)N(c3ccc(Cl)c(Cl)c3)C(=O)C21 (racemic)
pKi [1]: < 3

CCOP(=O)(OCC)C1N=CC2C(=O)N(c3ccccc3)C(=O)C21 (racemic)
pKi [1]: 7.73
IC50 (Nischarin): 3.39 µM
Ki [2]: 9.55 µM

CCOP(=O)(OCC)C1(c2ccccc2)N=CC2C(=O)N(c3ccc(F)cc3)C(=O)C21 (racemic)
pKi [1]: < 3
Ki [2]: 4.57 µM

CCOP(=O)(OCC)C1(c2ccccc2)N=CC2C(=O)N(c3ccc(Br)cc3)C(=O)C21 (racemic)
pKi [1]: < 3

CCOP(=O)(OCC)C1(c2ccccc2)N=CC2C(=O)N(C3CCCCC3)C(=O)C21 (racemic)
IC50 (Nischarin): 0.0288 µM

CCOP(=O)(OCC)C1(c2ccccc2)N=CC2C(=O)N(C3Cc4ccccc4C3)C(=O)C21 (racemic)
pKi [1]: 3.84
Ratio Ki (Homo sapiens [4]): 2690
Ki [2]: 363 µM
pKi [5]: 3.2
pKi [6]: 6.87
Activity (Homo sapiens [7]): 22%
Ratio pKi (Homo sapiens [3]): 2

CCOP(=O)(OCC)C1(c2ccccc2)N=CC2C(=O)N(Cc3ccccc3)C(=O)C21 (racemic)
pKi [1]: 5.26
IC50 (Nischarin): 1.35 µM

CCOP(=O)(OCC)C1(c2ccccc2)N=CC2C(=O)N(C)C(=O)C21 (racemic)
pKi [1]: 7.97
IC50 (Nischarin): 0.646 µM
Ki [2]: 1.17 µM
Ratio pKi (Homo sapiens [3]): 110

CCOP(=O)(OCC)C1(c2ccccc2)N=CC2C(=O)N(c3cccc([N+](=O)[O-])c3)C(=O)C21 (racemic)
pKi [1]: 6.81
IC50 (Nischarin): 5.5 µM

CCOP(=O)(OCC)C1(c2ccccc2)N=CC2C(=O)N(c3ccc(OC)cc3)C(=O)C21 (racemic)
pKi [1]: 6.65
IC50 (Nischarin): 603 µM

COc1nc(C)nc(Cl)c1N=C1NCCN1 [MOXONIDINE]
IC50 (Nischarin): 0.00355 µM

CCOP(=O)(OCC)C1(c2ccccc2)N=CC2C(=O)N(CC34CC5CC(CC(C5)C3)C4)C(=O)C21 (racemic)
pKi [1]: 7.01
Ki [2]: 49 µM
Ratio pKi (Homo sapiens [3]): 501

CCOP(=O)(OCC)C1(c2ccccc2)N=CC2C(=O)N(c3cccnc3Cl)C(=O)C21 (racemic)
pKi [1]: 7.96
Ki [2]: > 1000 µM
Ratio pKi (Homo sapiens [3]): 91200

C(=C\c1ccccc1)/C1=NCCN1 [TRACIZOLINE]
Ratio Ki (Homo sapiens [4]): 14100
Ki [2]: 46.8 µM
pKi [5]: 6.48
Ki [6]: 0.0033 µM
pKi [6]: 8.48
Activity (Homo sapiens [7]): 38%

c1ccc2oc(-c3ncc[nH]3)cc2c1
Ratio Ki (Homo sapiens [4]): 7240
Ki [2]: 6.76 µM
pKi [5]: 5.25
pKi [6]: 9.03
Activity (Homo sapiens [7]): 49%

CCOP(=O)(OCC)C1N=CC2C(=O)N(c3ccc(F)c(Cl)c3)C(=O)C21 (racemic)
pKi [1]: < 3
IC50 (Nischarin): > 1000 µM
Ki [2]: 0.00324 µM

CCOP(=O)(OCC)C1(c2ccccc2)N=CC2C(=O)N(CC)C(=O)C21 (racemic)
pKi [1]: 8.37
Ratio Ki (Homo sapiens [4]): 1260
Ki [2]: 1.41 µM
pKi [5]: 5.86
pKi [6]: 8.95
Activity (Homo sapiens [7]): 62%
Ratio pKi (Homo sapiens [3]): 331

CCOP(=O)(OCC)C1(c2ccccc2)N=CC2C(=O)N(c3cc(Cl)cc(Cl)c3)C(=O)C21 (racemic)
pKi [1]: 5.81
Ki [2]: 0.603 µM

CCOP(=O)(OCC)C1(Cc2ccc(F)cc2)N=CC2C(=O)N(c3ccccc3)C(=O)C21 (racemic)
pKi [1]: 5.35
Ki [2]: 0.0631 µM

CCOP(=O)(OCC)C1(c2ccccc2)N=CC2C(=O)N(CCc3ccccc3)C(=O)C21 (racemic)
pKi [1]: 6.35
IC50 (Nischarin): 0.0105 µM
Ki [2]: 170 µM
Ratio pKi (Homo sapiens [3]): 380

Cn1c(C2=NCCN2)cc2ccccc21
inhibition (Rattus norvegicus): 58%
Ki [8]: 0.239 µM
Ki [9]: 0.0014 µM
pKi [5]: 3.82
pKi [6]: 6.89
Activity (Homo sapiens [7]): 51%

CCOP(=O)(OCC)C1(c2ccccc2)N=CC2C(=O)N(c3ccccc3Cl)C(=O)C21 (racemic)
pKi [1]: 5.09
Ratio Ki (Homo sapiens [4]): 24
Ki [2]: 0.708 µM
pKi [5]: 4.74
pKi [6]: 7.53
Activity (Homo sapiens [7]): 25%

CCOP(=O)(OCC)C1(c2ccccc2)N=CC2C(=O)N(c3c(Cl)cc(Cl)cc3Cl)C(=O)C21 (racemic)
pKi [1]: < 3
Ki [2]: 6.92 µM

c1ccc(-c2ncc3cc(-n4ccnc4)ccc3n2)cc1
Ratio Ki (Homo sapiens [4]): 117000
Ki [2]: 2240 µM
pKi [5]: 5.45
pKi [6]: 7.72
Activity (Homo sapiens [7]): 29%
IC50 [10]: 0.596 µM
Ki [10]: 0.019 µM

CCOP(=O)(OCC)C1(c2ccc(F)cc2)N=CC2C(=O)N(c3ccc(F)c(Cl)c3)C(=O)C21 (racemic)
pKi [1]: 7.55
Ki [2]: 417 µM
Ratio pKi (Homo sapiens [3]): 14800

CCOP(=O)(OCC)C1(c2ccccc2)N=CC2C(=O)N(c3ccccc3)C(=O)C21 (racemic)
pKi [1]: 10.28
IC50 (Nischarin): 0.182 µM

CCOP(=O)(OCC)C1N=CC2C(=O)N(C3CCCCC3)C(=O)C21 (racemic)
pKi [1]: 5.74
IC50 (Nischarin): 7.24 µM
Ki [2]: 0.000324 µM
Ratio pKi (Homo sapiens [3]): 5

CCOP(=O)(OCC)C1(c2ccc(OC)cc2)N=CC2C(=O)N(c3ccccc3)C(=O)C21 (racemic)
pKi [1]: 3.39
Ki [2]: 141 µM

c1ccc2c(c1)OCC(C1=NCCN1)O2 (stereo not given) [IDAZOXAN]
pKi [11]: 5.68
pKi [12]: 7.17
pKi [6]: 7.74

CCOP(=O)(OCC)C1(c2ccccc2)N=CC2C(=O)N(C(C)(C)C)C(=O)C21 (racemic)
pKi [1]: 7.35
Ki [2]: 0.17 µM
Ratio pKi (Homo sapiens [3]): 3

CCOP(=O)(OCC)C1(c2ccccc2)N=CC2C(=O)N(c3ccc(Oc4ccccc4)cc3)C(=O)C21 (racemic)
pKi [1]: 6.96

CCOP(=O)(OCC)C1(c2ccccc2)N=CC2C(=O)N(c3cccc(C(F)(F)F)c3)C(=O)C21 (racemic)
pKi [1]: < 3

CCOP(=O)(OCC)C1(c2ccccc2)N=CC2C(=O)N(CCc3ccc(F)cc3)C(=O)C21 (racemic)
pKi [1]: < 3
Ki [2]: 2.24 µM

CCOP(=O)(OCC)C1(c2ccccc2)N=CC2C(=O)N(c3cccc(Cl)c3)C(=O)C21 (racemic)
pKi [1]: < 3

c1ccc2oc(C3=NCCN3)cc2c1
Ratio Ki (Homo sapiens [4]): 1700
Ki [2]: 0.229 µM
pKi [5]: 7.94
Ki [6]: 0.00013 µM
pKi [6]: 9.87
Activity (Homo sapiens [7]): 21%

CCOP(=O)(OCC)C1(c2ccccc2)N=CC2C(=O)N(c3ccc(Cl)cc3)C(=O)C21 (racemic)
pKi [1]: < 3

CCCN1C(=O)C2C=NC(c3ccccc3)(P(=O)(OCC)OCC)C2C1=O (racemic)
pKi [1]: 4.02

CCOP(=O)(OCC)C1(c2ccccc2)N=CC2C(=O)N(c3ccc(-c4ccccc4)cc3)C(=O)C21 (racemic)
pKi [1]: 7.9
IC50 (Nischarin): 0.0646 µM

CCOP(=O)(OCC)C1(c2ccc(F)cc2)N=CC2C(=O)N(c3ccccc3)C(=O)C21 (racemic)
pKi [1]: < 3
Ki [2]: 0.17 µM

CCOP(=O)(OCC)C1(c2ccc(OC)cc2)N=CC2C(=O)N(c3ccc(F)c(Cl)c3)C(=O)C21 (racemic)
pKi [1]: 7.87
Ki [2]: > 1000 µM
Ratio pKi (Homo sapiens [3]): 74100
